Data reported in US5786492A, “Halichondrins” (Pharma Mar, S.A., priority 1992, dated 1998).
Values after ≈ are worked out from the molar mass of the structure shown.

System: P388 cell line
Assay: antitumor P388 bioassay
Assay type: cell-based, murine
Conditions: for IC50, murine leukaemia cell (P388 cell line): text comparison of three halichondrins
Text: Most of the compounds have been submitted to the antitumor P388 bioassay.

Row | SMILES | IC50 against P388 cell line (conc 0.0001 (unit of conc not given)) [ng/mL] | IC50 against P388 cell line (conc 0.001 (unit of conc not given)) [ng/mL] | IC50 against P388 cell line (other day, conc 0.001 (unit of conc not given)) [ng/mL] | IC50, murine leukaemia cell (P388 cell line) [ng/mL]
1 | C=C1C[C@@H]2CC[C@@]34C[C@H]5O[C@H]6[C@@H](O3)[C@H]3O[C@H](CC[C@@H]3O[C@H]6[C@H]5O4)CC(=O)O[C@@H]3[C@@H](C)[C@@H]4O[C@@H]5C[C@]6(C[C@@H]7O[C@]8(C[C@H](C)[C@@H]9O[C@H]([C@@H](O)C[C@@H](O)CO)C[C@@H]9O8)C[C@H](C)[C@@H]7O6)O[C@@H]5C[C@@H]4O[C@H]3C[C@H]3O[C@@H](CC[C@@H]1O2)C[C@@H](C)C3=C [Halichondrin B] | 0.78 (≈ 0.702 nM) | 1.58 (≈ 1.42 nM) | < 0.09 | 6.7 (≈ 6.03 nM)
2 | C=C1C[C@@H]2CC[C@@]34C[C@H]5O[C@H]6[C@@H](O3)[C@H]3O[C@H](CC[C@@H]3O[C@H]6[C@H]5O4)CC(=O)O[C@@H]3[C@@H](C)[C@@H]4O[C@@H]5C[C@]6(C[C@@H]7O[C@]8(C[C@H](C)[C@@H]9O[C@@H]%10CC(C(O)CO)O[C@@H]%10C[C@@H]9O8)C[C@H](C)[C@@H]7O6)O[C@@H]5C[C@@H]4O[C@H]3C[C@H]3O[C@@H](CC[C@@H]1O2)C[C@@H](C)C3=C (some centres unmarked) [Homohalichondrin B] |  |  |  | 6.4 (≈ 5.7 nM)
